Consider two molecules from publication PMC4666608, “Metabolic Profiling of Chicken Embryos Exposed to Perfluorooctanoic Acid (PFOA) and Agonists to Peroxisome Proliferator-Activated Receptors” (PLoS ONE, 2015).

For orientation: EC50 means the concentration giving half of the maximal effect.

Data set [1] has as its system human PPARα. On the set-up: method as in PMID 16038868. The note with it: reporter cell assay; read-out: EC50, activation of transcription through human PPARα; cited from earlier work.
The conditions of data set [2]: for Body weight, Mean ± SD / Liver-somatic index, Mean ± SD: E12; for Body weight / Liver weight / Liver-somatic index: group mean. Here is the method: The experimental procedures in this study were approved by the Uppsala Ethical Committee for Research on Animals (Permit number C 211/12). Fertilized chicken eggs (Gallus gallus domesticus) were obtained from a local breeder (Ova Production AB, Vittinge, Sweden). The egg weights were 60 ± 4 g (mean and standard deviation). The eggs were incubated at 37.5°C and 60% relative humidity with automatic turning every six hours. The day the eggs were placed in the incubator was defined as embryonic day zero (E0). Chicken embryos were exposed to test substances by air sac injection in eggs incubated for seven days (E7). At this stage, the extraembryonic allantoic blood vessel network has grown to cover the inner shell membrane beneath the air sac and the injected substance will come in direct contact with the vascular network. The exposures were performed as follows: Unfertilized eggs and poorly developing embryos were recognized by candling and were sorted out. Eggs with embryos of normal size were collected and randomly distributed into the different treatment groups. On E7, the blunt end of each egg was wiped with alcohol and a small hole was drilled through the shell above the air sac. The dissolved test substance (20 μl) was deposited onto the inner shell membrane in the air sac and the hole was sealed with melted paraffin wax. Following injection, eggs were held horizontally and rotated for a few seconds to allow dispersal over the inner shell membrane in the air sac. Each egg was marked with a number specifying the treatment group and was placed at a random location in the incubator.
The doses were 150 μg/egg (approximately 2.5 mg/kg egg) for GW7647 and rosiglitazone and 50, 250 or 1000 μg/egg for PFOA (approximately 0.83, 4.2 and 18 mg/kg egg, respectively). Controls were injected with 20 μL vehicle only (DMSO). Due to the large number of embryos required, the experiment was divided into four replicate experiments (replicate A-D) performed the same way but on separate occasions. The number of exposed embryos was 10–15 for each treatment group and replicate.
Embryos and livers were weighed and the liver-somatic index was calculated (100 x liver weight/body weight). Livers were collected from the control group and from each of the PFOA groups for determination of PFOA concentrations. These livers were stored at -20°C and later extracted and analyzed as described below. Four females and four males from each PFOA group (except the 1000 μg/egg group) and from the control group were also randomly chosen for evaluation of signs of overt liver toxicity using liver histology (method described in S1 Methods).
The software GraphPad Prism version 5 (GraphPad Software Inc, San Diego, CA, USA) was used for univariate and bivariate statistics. Mortality rates were analyzed with Fisher’s exact test. Body weight, liver-somatic index and concentrations of plasma lipids were initially analyzed using two-way analysis of variance (two-way ANOVA) with treatment and sex (or treatment and replicate) as independent variables. […] Metabolites were selected by multivariate methods as described below and differences in concentrations (treatment groups vs control group as well as females vs males) were then tested using Student’s t-test. The results of these t-tests on metabolite concentrations were used in an exploratory way to find candidate metabolites and for that reason the p-values were not corrected for multiple comparisons.

The nature of data set [3]: Determination of PFOA in liver (UPLC-MS/MS). The note with it: for concentration at 5 days: chicken (Gallus gallus domesticus) embryo, other: air sac injection into the egg, 1000 µg/egg; for concentration at 5 days / concentration at 5 d: liver; for concentration at 5 d: chicken, other: air sac injection in ovo. It counts as in vivo, Gallus gallus domesticus. The protocol:
(§1) Controls were injected with 20 μL vehicle only (DMSO).
(§2) The concentration of PFOA was analyzed in liver and blood plasma from control embryos and embryos exposed to PFOA (50, 250 and 1000 μg/egg). Five individual livers from each PFOA-treated group were analyzed. Very low PFOA concentrations were anticipated in the controls and therefore the amount of tissue was increased by pooling 2–3 livers, and five such pools were analyzed. Four plasma samples (50 μL) were analyzed from each group except the group exposed to 1000 μg PFOA/egg for which three samples were analyzed. Extraction blanks were included for each batch. The analyzed amount of liver homogenate was 100 mg for controls and 50 mg for PFOA-exposed embryos. Livers were homogenized using the bead mill Bullet Blender® Storm 24 (Next Advance, Inc. New York, USA) with stainless steel beads at speed 8 for 3 min. Plasma and liver samples were spiked with 50 ng of internal standard (^13C4-PFOA, Wellington, Guelph, Canada). Five milliliters of acetonitrile (Labscan, Gliwice, Poland) was added to the samples followed by vortex mixing, sonication (20 min), and centrifugation (10 000 g, 5 min). Extraction was performed twice for livers and once for plasma. One mL of supernatant from the extracts was transferred to a tube prepared with 50 mg ENVI-Carb™ 20/400 mesh (Supelco, Bellefonte, PA, USA) and 100 μL glacial acetic acid (Sigma-Aldrich). The carbon suspension was vortex mixed and then filtrated using a 0.2-μm GHP filter (Pall, East Hills, NY, USA). Filtrate (0.4 mL) was mixed with 2 ng of the recovery standard (^13C8-PFOA, Wellington Laboratories) and 0.6 mL 2 mM ammonium acetate was added. Analysis was performed using an Acquity UPLC coupled to a Xevo-TQS MS/MS (Waters Corporation, Milford, MA, USA) as described previously. The recovery standard ^13C8-PFOA was added before injection to assess the recoveries of the internal standard ^13C4-PFOA. The recoveries ranged between 75 and 94% (average 82%) for plasma and between 64 and 119% (average 84%) for liver.

Data set [4] can be described thus: Determination of PFOA in blood plasma (UPLC-MS/MS). It counts as in vivo, Gallus gallus domesticus. To be noted: E12; for concentration at 5 d: chicken, plasma, other: air sac injection in ovo. The protocol: as §1
Plasma was collected and stored at -70°C.
as §2

Data set [5] relates to chicken embryos. To be noted: injection before start of incubation; cited from earlier work.
Where [6] appears, read: PFOA 1000 μg/egg, five embryos from replicate A.
Setting [7] is: group PFOA 1000 (1000 µg/egg), five embryos, replicate A only.

Several values for one entry are separate records, joined by “and”; a condition that tells them apart may be missing. Equal values may be shown once. Read-outs that look alike come from different tables or passages of the source.

With `CC(C)(Sc1ccc(CCN(CCCCC2CCCCC2)C(=O)NC2CCCCC2)cc1)C(=O)O` [GW7647, reference compound], in data set [1], the EC50 is […].

As for `O=C(O)C(F)(F)C(F)(F)C(F)(F)C(F)(F)C(F)(F)C(F)(F)C(F)(F)F` [PFOA, perfluorooctanoic acid], the figures for the “Body weight, Mean ± SD” value in data set [2] (PFOA 50 μg/egg), in data set [2] (PFOA 250 μg/egg) and in data set [2] (setting [6]) were 4.2 ± 0.5 g, 4.3 ± 0.4 g and 4.6 ± 0.4 g, respectively. The “Liver-somatic index, Mean ± SD” value was determined as 1.7 ± 0.1% in data set [2] (PFOA 50 μg/egg), 1.7 ± 0.2% in data set [2] (PFOA 250 μg/egg) and 2.0 ± 0.2% in data set [2] (setting [6]). For the same molecule, the Body weight came to 4.2 g in data set [2] (group PFOA 50 (µg/egg)), 4.3 g in data set [2] (group PFOA 250 (µg/egg)) and 4.6 g in data set [2] (setting [7]). The Liver weight amounted to 70.6 mg in data set [2] (group PFOA 50 (µg/egg)), 72.7 mg in data set [2] (group PFOA 250 (µg/egg)) and 91.5 mg in data set [2] (setting [7]). For the same molecule, the values for the Liver-somatic index in data set [2] (group PFOA 50 (µg/egg)), in data set [2] (group PFOA 250 (µg/egg)) and in data set [2] (setting [7]) were 1.7%, 1.7% and 2.0%, respectively. Moreover, the Concentration in liver in data set [3] (PFOA 50 µg/egg, chicken embryo liver, individual embryos) is 1067 ng/g and 1343 ng/g and 1269 ng/g and 1059 ng/g; in data set [3] (PFOA 250 µg/egg, chicken embryo liver, individual embryos), 3843 ng/g and 2549 ng/g and 3327 ng/g and 3144 ng/g; in data set [3] (PFOA 1000 µg/egg, chicken embryo liver, individual embryos), 11372 ng/g and 14202 ng/g and 9187 ng/g and 10517 ng/g. Also, the concentration at 5 days in data set [3] (PFOA 1000 µg/egg, chicken embryo liver, group mean (n=5), read-out: Concentration in liver, Mean) was found to be 10800 ng/g; in data set [3] (PFOA 1000 µg/egg, chicken embryo liver, individual embryos, read-out: Concentration in liver) it was 8570 ng/g. For the same molecule, the concentration at 5 d in data set [3] (50 μg/egg, E12, 50 μg PFOA/egg on E7, read-out: Mean PFOA concentration in liver) was determined as 1100 ng/g; in data set [3] (50 µg/egg, PFOA 50 µg/egg, chicken embryo liver, group mean (n=5), read-out: Concentration in liver, Mean), 1180 ng/g; in data set [3] (50 µg/egg, PFOA 50 µg/egg, chicken embryo liver, individual embryos, read-out: Concentration in liver) it was 1170 ng/g; in data set [3] (250 μg/egg, E12, 250 μg PFOA/egg on E7, read-out: Mean PFOA concentration in liver) it was 3600 ng/g; in data set [3] (250 µg/egg, PFOA 250 µg/egg, chicken embryo liver, group mean (n=5), read-out: Concentration in liver, Mean), 3580 ng/g; in data set [3] (250 µg/egg, PFOA 250 µg/egg, chicken embryo liver, individual embryos, read-out: Concentration in liver), 5060 ng/g. For the same molecule, the concentration at 5 d is 11000 ng/g in data set [3] (1000 μg/egg, E12, 1000 μg PFOA/egg on E7, read-out: Mean PFOA concentration in liver); 2000 ng/mL in data set [4] (50 μg/egg, 50 μg PFOA/egg on E7, read-out: Mean PFOA concentration in plasma); 2000 ng/mL in data set [4] (50 µg/egg, PFOA 50 µg/egg, read-out: Concentration in plasma, Mean); 1440 ng/mL in data set [4] (50 µg/egg, PFOA 50 µg/egg, read-out: Concentration in plasma, individual embryo); 6300 ng/mL in data set [4] (250 μg/egg, 250 μg PFOA/egg on E7, read-out: Mean PFOA concentration in plasma); 6300 ng/mL in data set [4] (250 µg/egg, PFOA 250 µg/egg, read-out: Concentration in plasma, Mean). The concentration at 5 d is 5480 ng/mL in data set [4] (250 µg/egg, PFOA 250 µg/egg, read-out: Concentration in plasma, individual embryo); 18000 ng/mL in data set [4] (1000 μg/egg, 1000 μg PFOA/egg on E7, read-out: Mean PFOA concentration in plasma); 17600 ng/mL in data set [4] (1000 µg/egg, PFOA 1000 µg/egg, read-out: Concentration in plasma, Mean); 16700 ng/mL in data set [4] (1000 µg/egg, PFOA 1000 µg/egg, read-out: Concentration in plasma, individual embryo). For the same molecule, the “Concentration in plasma, individual embryo” value was 2453 ng/mL and 2350 ng/mL in data set [4] (PFOA 50 µg/egg, female embryos); 1759 ng/mL in data set [4] (PFOA 50 µg/egg, male embryos); 8562 ng/mL in data set [4] (PFOA 250 µg/egg, female embryos); 5531 ng/mL and 5643 ng/mL in data set [4] (PFOA 250 µg/egg, male embryos); 17963 ng/mL and 18228 ng/mL in data set [4] (PFOA 1000 µg/egg). Also, in data set [5], the “Dose at which increased mortality was reported” value is reported as 5 mg/kg egg. The “Doses with lack of effect on hatching success or mortality” value in data set [5] was “up to 10 mg/kg egg”. For the same molecule, the “Lowest observed effect level, increased embryo mortality” value in data set [5] is on record as 2 mg/kg egg.
